# Measurements reported in US6645972B2, “Methods of treating leukemia” (Shire BioChem Inc., priority 2001, dated 2003).
# pIC50: −log10 of the molar value. Where a name gives a salt, the structure may show the parent alone.
# Columns and labels:
# [1] = system: KBM7 cells; assay: response of KBM7 cells to STI-571 exposure; format: cell-based, human
# Procedure: (§1) The cells were cultured in Iscove's modified Dulbecco's medium supplemented with 10% fetal calf serum (Invitrogen Corp., Carlsbad, Calif.) at 37° C. in atmosphere of 5% CO2 in air.
# [2] = system: KBM5 cells; assay: response of KBM5 cells to STI-571 exposure; format: cell-based, human
# Procedure: as §1
# [3] = system: KBM5-STI^R cells (STI-571-resistant KBM5); assay: in vitro growth inhibition (MTS) assay, KBM5-STI^R; format: cell-based, human; conditions: 3 day MTS assay, 72 h exposure, read-out: IC50 (drug concentration which causes 50% growth inhibition)
# [4] = system: KBM-5 cells; assay: in vitro growth inhibition (MTS) assay, KBM-5; format: cell-based, human; conditions: 3 day MTS assay, 72 h exposure, read-out: IC50 (drug concentration which causes 50% growth inhibition)
# Procedure: (§2) β-L Oddc was evaluated using an in vitro growth inhibition (MTS) assay. The description of the cell lines used and the details of the MTS assay are described below.
# (§3) Cell lines: Two human CML, Ph+, p210 Bcr-Abl expressing cell lines were used, namely, KBM-5 and KBM-7. KBM-5 was derived from a patient in the blastic phase of CML and was evaluated to be absent of normal c-ABL. KBM-7 was identified previously to be a human near-haploid cell line. These two cell lines were further described in the references below, now incorporated by reference:
# as §1
# (§4) Growth inhibition (MTS) assay: The in vitro growth inhibition effect of β-L Oddc on leukemic cells was determined by measuring MTS (CellTiter 96®Aqueous One Solution Reagent, Promega Corporation, WI) dye absorbance by living cells. Briefly, cells were seeded in triplicate in 96-well microtiter plates (Falcon, USA) at a concentration of 4×10^5 cells /ml. After exposure to the β-L Oddc for 72 h, 20 μl of MTS solution were added to each well, the plates were incubated for additional 4 h at 37° C., and absorbance at 490 nm was measured.
# [5] = system: KBM-7 cells; assay: in vitro growth inhibition (MTS) assay, KBM-7; format: cell-based, human; conditions: 3 day MTS assay, 72 h exposure, read-out: IC50 (drug concentration which causes 50% growth inhibition)
# Procedure: as §2, §3, §1, §4
# [6] = system: chronic myeloid leukemia in blastic phase (CML-BP); assay: preliminary multicenter study in patients with CML-BP; format: in vivo, human; conditions: 8mg/m^2/day daily for 5 days, twenty one patients evaluable, 40 cycles, data not verified
# Procedure: A preliminary study was conducted to investigate the activity of β-L Oddc in patients with chronic myeloid leukemia in blastic phase (CML-BP). The multicenter study was conducted using β-L Oddc 8mg/m^2/day daily for 5 days for patients with CML-BP who had received no prior chemotherapy for CML-BP. Patients who had received Gleevec therapy as sole prior therapy for CML-BP were also eligible. Twenty-six patients, 17 male, 26 performance score less than or equal to 2, median age 54 years (range 31-84) had been entered in the study to date. 13 (50%) patients received β-L Oddc as first therapy for CML-BP, 13 (50%) had failed prior Gleevec therapy for CML-BP. Response definitions are as follows: Complete hematologic response (CHR) requires normalization of peripheral counts and differentials with less than or equal to 5% marrow blasts for at least 4 weeks. Hematologic improvement (HI) is as with CHR but with persistence of thrombocytopenia less than 100×10^9/L and few immature peripheral cells. A partial hematologic response (PHR) is as per CHR, but allows persistence of, though less than or equal to 50% reduction of, palpable splenomegaly and thrombocytosis (platelets>450×10^9/L) or the presence of few immature peripheral cells. […]
# [7] = system: KBM7-STI^R cells (STI-571-resistant KBM7); assay: in vitro growth inhibition (MTS) assay, KBM7-STI^R; format: cell-based, human; conditions: 3 day MTS assay, 72 h exposure, read-out: IC50 (drug concentration which causes 50% growth inhibition)
# Procedure: as §2, §3, §4
Structure (SMILES),response to STI-571 exposure [1],response to STI-571 exposure [2],pIC50 [3],pIC50 [4],pIC50 [5],patients in whom some responses were observed [6] [patients],pIC50 [7]
"Cc1ccc(NC(=O)c2ccc(CN3CCN(C)CC3)cc2)cc1Nc1nccc(-c2cccnc2)n1 [STI-571, imatinib mesylate]",apoptosis,G0/G1 cell cycle arrest,,,,,
"Nc1ccn([C@@H]2CO[C@H](CO)O2)c(=O)n1 [β-L Oddc, (−)-β-L-Dioxolane-Cytidine]",,,6.00 to 6.30,6.00 to 6.30,6.00 to 6.30,4,6.00 to 6.30
